Experimental data reported in US20090054368A1, “Substituted gemini surfactant compounds” (University of Saskatchewan, priority 2007, published 2009).
Several values for one entry are separate records, joined by “and”; a condition that tells them apart may be missing. Equal entries are not always repeated. Entries after “also recorded” stand apart in the source; their conditions may differ.

Columns and labels:
[1] = test system: COS-7 African Green monkey kidney fibroblast cells; assay: Transfection assay (luciferase production after transfection with plasmid DNA-gemini surfactant complexes); type: cell-based; conditions: PGL complexes, with DOPE added
Experimental: COS-7 African Green monkey kidney fibroblast cells (ATCC CRL1651) were prepared for transfection in antibiotic and 10% fetal bovine serum supplemented minimal Eagle's medium (MEM). The day before transfection, 5×10^4 cells/well were seeded in 24-well plates (Greiner Labortechnik GmbH, Germany). The supplemented MEM was changed to MEM one hour prior to transfection.
The pMASIA.Luc plasmid DNA was used at a concentration of 0.2 μg/well for transfection. The transfection mixtures were prepared as follows: 0.2 μg of plasmid DNA was mixed with aliquots of gemini surfactant solution to obtain a plasmid DNA:gemini surfactant charge ratio of 1:10 and incubated at room temperature for 15 minutes. To this mixture, 25 μL of DOPE liposomes were added. The transfection mixtures were incubated for 30 minutes at room temperature prior to transfection and added to the cells, dropwise. The plates were incubated for 5 hours at 37° C. in a CO2 incubator. Dc-Chol (30-[N—(N′,N′-Dimethylaminoethane)-carbamoyl]cholesterol) was used for comparison and, as a positive control, cells were also transfected with Lipofectamine Plus™ Reagent (Invitrogen Life Technologies, Carlsbad, Calif.), according to the manufacturer's protocol, with 0.2 μg of plasmid DNA per well.
Luciferase production was quantified using the Promega Steady-Glo™ luciferase assay system. Luminescence was monitored using a Turner Biosystems (Sunnyvale, Calif., USA) Reporter microplate luminometer. Statistical analysis was performed using ANOVA and Tukey's multiple comparison test. […] Equal variances were tested using Bartlett's test, and normality by the D'Agostino & Pearson omnibus normality test.

cultured cells = assay: Viability of cells following transfection; type: cell-based; conditions: after transfection with plasmid DNA-gemini surfactant-DOPE or Lipofectamine Plus; relative to controls (no treatment or plasmid DNA alone)
Experimental: Ideal transfection reagents are minimally toxic and/or disruptive to cells. Accordingly, the N-substituted surfactants were tested for toxicity in cultured cells. The viability of cells following transfection with either plasmid DNA-gemini surfactant-DOPE or Lipofectamine Plus are shown in FIG. 3. The aza-substituted surfactants 12-5N-12, 12-8N-12, and 12-7N-12 had similar toxicity compared to the Lipofectamine Plus reagent, with cell viability around 80% of the controls (i.e., no treatment or plasmid DNA alone; p>0.05).

[2] = Average membrane charge density calculation for plasmid DNA-gemini surfactant-DOPE nanoparticles; type: physicochemical; conditions: calculated from head group areas
[3] = Small angle X-ray scattering (SAXS) of plasmid DNA-gemini surfactant-DOPE complexes; type: physicochemical; conditions: for d-spacing of main scattering peak / phase / morphology of lipid bilayers from scattering pattern (in words) / d-spacing of adjacent DNA molecules: plasmid DNA-gemini surfactant-DOPE complexes; for d-spacing of adjacent DNA molecules: weak peaks at q=0.172 Å^−1; for scattering peak position q, DNA: scattering from adjacent DNA molecules
Experimental: SAXS measurements were carried out at beamline X21 at the National Synchrotron Light Source at Brookhaven National Laboratory. Beamline X21 is based on a wiggler source, with a helium gas-cooled Si(111) monochromator selecting the photon energy. The X-ray beam is focused by a toroidal mirror into the experimental station. Three pairs of precision slits, positioned at 4 m, 1 m, and 5 cm upstream of the sample, define the beam. The scattering pattern is recorded using a 13 cm Mar CCD detector (Mar USA, Evanston, Ill.) located 1.26 m (calibrated with the scattering pattern of silver behenate) downstream of the sample. The measurements were performed with 12 KeV x-rays and the data covered a q-range from 0.008 Å^−1 to 0.375 Å^−1. All beam paths are under vacuum, except at the sample position, where the sample is in air, and kapton windows terminate the vacuum beam paths. Samples were loaded into 1.5 mm capillaries (Charles Supper #15-BG, Natick Mass.) and data recorded at room temperature. All spectra were processed to remove background contributions by subtracting the scattering profile obtained for a water-filled capillary. Peak fitting was carried out using the open-sources software package “fityk” (available at http://www.unipress.waw.pl/fityk/; last accessed on Jul. 5, 2007) using multiple Gaussian functions.
Solutions for SAXS analysis were prepared by addition of appropriate amounts of stock surfactant, DNA, and DOPE solutions, followed by sonication (to ensure complete mixing) where appropriate. The pGTmCMV.IFN-GFP plasmid DNA was used in the SAXS studies. The final concentrations of DNA and DOPE were 0.075 mM (50 μg/mL) and 1.00 mM (0.75 mg/mL), respectively. The concentration of gemini surfactant was adjusted as needed to obtain the desired 1:10 DNA:surfactant charge ratio. Preliminary x-ray scattering studies indicated these concentrations to be too dilute to give good scattering signals; as a result, the samples were concentrated 5× by evaporation.

[4] = test system: COS-7 African Green monkey kidney fibroblast cells; assay: Transfection assay (luciferase production after transfection with plasmid DNA-gemini surfactant complexes); type: cell-based; conditions: PG complexes, complexed with DNA in the absence of helper lipid (DOPE)
[5] = from reference [24]; cited from earlier work
DNA = assay: Binding constant between py-s-12 surfactants and DNA from changes in the UV spectrum of the pyrene moiety; parameters: species or system salmon; conditions: estimated from changes in the UV spectrum of the pyrene moiety
Excerpt: Similar to a series of peptide substituted pyrene compounds described in [51], the S1-S0, S2-S0, and S3-S0 transitions have lambdamax values of 376, 343, and 276 nm, respectively. The broadening of the absorbance bands of pyrene, the red shift in the absorbance band, and the observed hyperchromism in the presence of DNA are evidence of complexed pyrene compounds Quantitative estimates of the binding constants between py-s-12 surfactants and DNA were obtained by monitoring changes in the UV spectrum of the pyrene moiety. The binding constant for py-3-12 and DNA was estimated to be 5.9×10^3 L mol^−1 and that of py-6-12 was 1.9×10^4 L mol^−1. The stronger binding of py-6-12 to DNA implied that the distance between the cationic head groups is more suitable to electrostatically bind to DNA.
Pyrene, 6-bromohexanoyl chloride, anhydrous aluminum chloride, triethylsilane, trifluoroacetatic acid, N,N,N′,N′-tetramethylpropanediamine, N,N,N′,N′-tetramethylhexanediamine, and 1-bromododecane were purchased from Aldrich Inc. All solutions were prepared using analytical-grade water obtained from a Millipore Milli-Q filtration system. The sodium salt of double-stranded (ds) salmon sperm DNA (about 2 kbp, as stated by the manufacturer, Sigma) was used as received. […]

[6] = Size (hydrodynamic radius) and zeta potential as a function of pH; type: physicochemical; conditions: PGL complexes
Experimental: Determinations of size (hydrodynamic radius, RH) and zeta potential (ζ) as a function of pH were carried out using a Malvern Instruments (Worcestershire, UK) ZetaSizer NanoZs with MPT-2 auto-titrator attachment. 10 mL of the desired sample was placed in the titration cell of the auto-titrator and samples were titrated (in 0.2-0.5 pH unit increments) with 0.1 M NaOH and 0.1 M HCl over the desired pH range. Size and zeta potential measurement were made in triplicate at each pH point, and the reported values represent the average±standard error. pH titrations of aqueous gemini surfactant solutions were made at a surfactant concentration of 2.00 mM, above the critical micelle concentration in all cases.
Solutions for size, zeta potential, and circular dichrosicm (CD) measurements were prepared, in larger volumes, as described above for the transfection experiments using a pGTmCMV.IFN-GFP plasmid DNA, previously constructed in our lab. Solutions containing only surfactant and plasmid DNA were prepared by addition of an aliquot of stock plasmid DNA to the gemini surfactant solution to a charge ratio of 1:10 (DNA:surfactant).

[7] = previous work [11]; cited from earlier work
[8] = plasmid DNA-gemini surfactant-DOPE systems

Structure (SMILES) | membrane charge density σM [2] | d-spacing of main scattering peak [3] | phase / morphology of lipid bilayers from scattering pattern (in words) [3] | scattering peak position q, lamellar (L) phase [3, 8] | scattering peak position q, DNA [3, 8] | transfection efficiency (in words) [1] | cell viability (cultured cells) | transfection efficiency (in words) [4] | Head group area a0 [5] | also measured
CCCCCCCCCCCC[N+](C)(C)CCCCCC[N+](C)(C)CCCCCCc1ccc2ccc3cccc4ccc1c2c34.[Br-].[Br-] [py-6-12, N1-dodecyl,N1,N1,N6,N6-tetramethyl-N6-(6-(pyren-6-yl)-hexyl)hexane-1,6-diammonium dibromide] |  |  |  |  |  |  |  |  |  | binding constant with DNA (DNA): 19000 L/mol
CCCCCCCCCCCC[N+](C)(C)CCC[N+](C)(C)CCCCCCc1ccc2ccc3cccc4ccc1c2c34.[Br-].[Br-] [py-3-12, N1-dodecyl,N1,N1,N3,N3-tetramethyl-N3-(6-(pyren-6-yl)-hexyl)propane-1,3-diammonium dibromide] |  |  |  |  |  |  |  |  |  | binding constant with DNA (DNA): 5900 L/mol
CCCCCCCCCCCC[N+](C)(C)CCOCC[N+](C)(C)CCCCCCCCCCCC.[Br-].[Br-] [12-E01-12] |  |  | mixed lamellar, hexagonal, and cubic phases |  |  | enhanced transfection efficiency compared to 12-3-12; also recorded: higher levels of transfection efficiency compared to the non-substituted gemini surfactant 12-3-12 |  |  |  | 
CCCCCCCCCCCC[N+](C)(C)CCCCCCCC[N+](C)(C)CCCCCCCCCCCC.[Br-].[Br-] [12-8-12] |  |  |  |  |  |  |  |  |  | transfection efficiency within the 12-s-12 series, s=3-8 (in words) [7]: lowest
CCCCCCCCCCCC[N+](C)(C)CC(O)C(O)C[N+](C)(C)CCCCCCCCCCCC.[Br-].[Br-] (stereo not drawn) [12-4(OH)2-12] |  |  | mixed lamellar, hexagonal, and cubic phases |  |  | enhanced transfection efficiency compared to 12-3-12; also recorded: higher levels of transfection efficiency compared to the non-substituted gemini surfactant 12-3-12 |  |  |  | 

Second part, led by results:

membrane charge density σM [2] | d-spacing of main scattering peak [3] | phase / morphology of lipid bilayers from scattering pattern (in words) [3] | scattering peak position q, lamellar (L) phase [3, 8] | scattering peak position q, DNA [3, 8] | Structure (SMILES) | transfection efficiency (in words) [1] | cell viability (cultured cells) | transfection efficiency (in words) [4] | Head group area a0 [5] | also measured
1.05 ×10^−2 e/Å^2 | 58.6 Å | lamellar (L) phase | 0.107 Å^−1 and 0.207 (L) Å^−1 | 0.172 Å^−1 and 0.173 Å^−1 | CCCCCCCCCCCC[N+](C)(C)CCN(C)CC[N+](C)(C)CCCCCCCCCCCC [12-5N-12] | enhanced transfection efficiency compared to the un-substituted surfactant, 12-3-12; also recorded: higher levels of transfection efficiency compared to the non-substituted gemini surfactant 12-3-12 | around 80% | similarly low transfection efficiency compared to 12-3-12 | 1.30 ± 0.03 nm^2/molecule | transfection efficiency (in words) ([1]; listed as 125N-12): less efficient in DNA transfection; d-spacing of adjacent DNA molecules [3]: 36.5 Å
0.780 ×10^−2 e/Å^2 | 59.6 Å | lamellar structure | 0.105 Å^−1 and 0.210 (L) Å^−1 | 0.170 Å^−1 and 0.169 (DNA), Å^−1 | CCCCCCCCCCCC[N+](C)(C)CCN(C)CCN(C)CC[N+](C)(C)CCCCCCCCCCCC [12-8N-12] |  | around 80% | similarly low transfection efficiency compared to 12-3-12 | 1.95 ± 0.13 nm^2/molecule | scattering peak position q, no phase assigned [3, 8]: 0.119 Å^−1
0.748 ×10^−2 e/Å^2 | 59.6 Å |  |  |  | CCCCCCCCCCCC[N+](C)(C)CCCN(C)CCC[N+](C)(C)CCCCCCCCCCCC.[Br-].[Br-] [12-7N-12, 1,9-bis(dodecyl)-1,1,5,9,9-pentamethyl-5-aza-1,9,-nonanediammonium dibromide] | enhanced transfection efficiency compared to the un-substituted surfactant, 12-3-12; also recorded: higher levels of transfection efficiency compared to the non-substituted gemini surfactant 12-3-12; also recorded: most efficient aza-substituted surfactant; also recorded: highest | around 80% | similarly low transfection efficiency compared to 12-3-12 | 2.06 ± 0.20 nm^2/molecule | pH dependence of particle size (in words) [6]: remained essentially unchanged; pH dependence of zeta potential (in words) [6]: increased as a function of decreasing pH
1.43 ×10^−2 e/Å^2 | 61.7 Å | lamellar (L) phase | 0.203 (L) Å^−1 and 0.102 Å^−1 | 0.172 Å^−1 | CCCCCCCCCCCC[N+](C)(C)CC[N+](C)(C)CCCCCCCCCCCC.[Br-].[Br-] [12-2-12, reference compound] |  |  |  | 0.89 ± 0.05 nm^2/molecule | d-spacing of adjacent DNA molecules [3]: 36.5 Å
